# From US20220267271A1, “WNT ACTIVATORS AND METHODS OF USE” (MAYO FOUNDATION FOR MEDICAL EDUCATION AND RESEARCH, priority 2019, published 2022)
# Key:
# LRP6 = experiment: Endogenous LRP6 expression in N2a cells by Western blotting; type: cell-based; conditions: 0.8 and 1.6 μM, 24 h
# Experimental: (A) HT1080 cells stably transduced with human LRP6 with HA tag were treated with niciosamide (1 μM) and other compounds as noted (1 μM) for 24 hr. The levels of HA-LRP6 were examined by Western blots with anti-HA antibody. All samples were also probed with anti-actin antibody to verify equal loading. This experiment is a representative of two such experiments performed with similar data. (B) N2a cells were treated with 1015 and 1011 at the indicated concentrations for 24 h. The expression levels of LRP6, β-catenin and actin were examined by Western blotting. This experiment is a representative of three such experiments performed with similar data. (C) HEK293 cells were transfected with LRP6 siRNAs, and after 8 h incubation were further transfected with Super8XTOPFlash construct and β galactosidase-expressing vector. […] The luciferase activity was then measured and normalized to β-galactosidase activity. […]
# Western blotting: Cells in 6-well plates were lysed in 0.5 ml of lysis buffer (phosphate-buffered saline containing 1% Triton X-100, 1× Proteinase inhibitor cocktail Complete, and 1 mM PMSF) at 4° C. for 15 min. Equal quantities of protein were subjected to SDS-PAGE under reducing conditions. […] The immunoreactive proteins were then detected using the ECL system or the Odyssey infrared imaging system (LI-COR). […]
# [1] = Metabolic stability in mouse liver microsomes; type: in vitro ADME; conditions: 2 μM, five time points over 40 min, NADPH
# Experimental: Metabolic stability of several compounds (1009, 1011, 1015, 1020, and 1056) and 2 reference compounds (propranolol and imipramine) were determined in mouse liver microsomes at five time points over 40 min using HPLC-MS. Metabolic stability is defined as the percentage of parent compound lost over time in the presence of a metabolically active test system.
# Metabolic stability in mouse liver microsomes: Mouse hepatic microsomes were isolated from pooled, perfused livers of Balb/c male mice according to the standard protocol. The batch of microsomes was tested for quality control using Imipramine, Propranolol and Verapamil as reference compounds. Microsomal incubations were carried out in 96-well plates in 5 aliquots of 40 μL each (one for each time point). Liver microsomal incubation medium contained PBS (100 mM, pH 7.4), MgCl2 (3.3 mM), NADPH (3 mM), glucose-6-phosphate (5.3 mM), glucose-6-phosphate dehydrogenase (0.67 units/ml) with 0.42 mg of liver microsomal protein per ml. Control incubations were performed replacing the NADPH-cofactor system with PBS. Test compound (2 μM, final solvent concentration 1.6%) was incubated with microsomes at 37° C., shaking at 100 rpm. Incubations were performed in duplicates. Five time points over 40 minutes had been analyzed. The reactions were stopped by adding 12 volumes of 90% acetonitrile-water to incubation aliquots, followed by protein sedimentation by centrifuging at 5500 rpm for 3 minutes. […]. Supernatants were analyzed using the HPLC system coupled with tandem mass spectrometer.
# The elimination constant (kel), half-life (t1/2) and intrinsic clearance (Clint) were determined in plot of […] versus time, using linear regression analysis: […]
# S. typhimurium TA98 = experiment: Ames test, bacterial reverse mutation assay, TA98; parameters: species or system Salmonella typhimuium; conditions: 1011 and 1015 at 400 μM, mean ± SD, n = 3
# Experimental: (§1) Ames test: According to the OECD Guidelines For Testing Of Chemicals, experiments with the tested agents, positive and negative controls, were conducted in triplicates on 6 tester strains, S. typhimurium: TA98, TA100, TA1535, TA1537 and E. coli: wp2[pKM101]+wp2 uvrA mixed 1:2. Dimethyl sulfoxide (DMSO) was used as the vehicle control for all tester strains in mutagenicity assay with and without metabolic activation. Compounds with known mutagenic activity were used as the positive controls in mutagenicity assay without metabolic activation: 2-nitrofluorene (0.1 μg/plate) for TA98, 4-nitroquinoline N-oxide (0.1 μg/plate) for TA100, sodium azide (0.2 μg/plate) for TA1535, 9-aminoacridine (7.5 μg/plate) for TA1537, and 4-nitroquinoline N-oxide (0.1 μg/plate) for E. coli. 2-Aminoantracene in final concentration 0.4 μg/ml was used as the positive control (the solution of 2-aminoantracene in DMSO was prepared immediately before experiment) in test with metabolic activation. For each experiment tester strain cultures were grown overnight in Oxoid nutrient broth #2 at 37° C. with shaking at 235 rpm to a density of 1-2×10^9 colony forming units/ml (OD600˜1.5). The S9 mix, which is consist of 9000 g supernatant fraction of rat liver homogenate (S9 fraction), was prepared immediately prior to its use in experimental procedure.
# (§2) The tester strain (10 μl of overnight culture) was mixed with the test agent (10 μl of the DMSO stock) and GM liquid medium (30 μl) or S9 mix (30 μl). Then, 200 μl of molten top agar supplemented with histidine/biotin (final concentration 0.05 mM) for S. typhimurium and tryptophan (final concentration 0.025 mM) for E. coli were added to the tube (top agar was kept at 44° C. to prevent hardening). The mixed suspension was poured onto the surface of a GM agar plate (2.0 ml of GM agar per plate). After the top agar solidified, the plates were inverted and incubated at 37° C. for 48 hours. The results were expressed as number of revertant colonies per plate. The final concentrations of the test compounds in the mutagenicity assay with all tester strains in both the presence and absence of S9 mix were 400 μM. All concentrations were tested in triplicates.
# S. typhimurium TA100 = experiment: Ames test, bacterial reverse mutation assay, TA100; parameters: species or system Salmonella typhimuium; conditions: 1011 and 1015 at 400 μM, mean ± SD, n = 3
# Experimental: as §1, §2
# [2] = system: S. typhimuium and E. coli; experiment: Bacterial reverse mutation test, all tested strains (summary); parameters: species or system Salmonella typhimuium and Escherichia coli; conditions: 400 μM
# Experimental: The bacterial reverse mutation test uses amino acid requiring strains of Salmonella typhimuium and Escherichia coli (E. coli) to detect chemical substances that can produce genetic damage and lead to gene mutations. The mutagenic potential of 1011 and 1015 and their metabolites was assessed by exposing bacterial strains to the compounds and evaluating at 400 μM, and evaluating the numbers of revertant colonies grown in the absence (trace quantities) of the amino acid.
# Ames test: According to the OECD Guidelines For Testing Of Chemicals, experiments with the tested agents, positive and negative controls, were conducted in triplicates on 6 tester strains, S. typhimurium: TA98, TA100, TA1535, TA1537 and E. coli: wp2[pKM101]+wp2 uvrA mixed 1:2. Dimethyl sulfoxide (DMSO) was used as the vehicle control for all tester strains in mutagenicity assay with and without metabolic activation. […]
# The tester strain (10 μl of overnight culture) was mixed with the test agent (10 μl of the DMSO stock) and GM liquid medium (30 μl) or S9 mix (30 μl). […] The results were expressed as number of revertant colonies per plate. […]
# [3] = with metabolic activation (S9 mix)
SMILES,endogenous LRP6 expression (LRP6),stability in mouse hepatic microsomal system [1],"Number of revertant colonies per plate, TA 98 (S. typhimurium TA98; [3])","Number of revertant colonies per plate, TA 98 (S. typhimurium TA98; without metabolic activation)","Number of revertant colonies per plate, TA100 (S. typhimurium TA100; [3])","Number of revertant colonies per plate, TA100 (S. typhimurium TA100; without metabolic activation)",mutagenic effects of test compounds and their metabolites [2]
Nc1ccccc1NC(=O)c1ccc(C(=O)NCC2CCN2C2CCCC2)cn1 (stereo not drawn) [Compound 1015],significantly enhanced,good stability,0.7 ± 1.2 revertant colonies per plate,1.3 ± 1.5 revertant colonies per plate,2.0 ± 1.0 revertant colonies per plate,1.33 ± 0.6 revertant colonies per plate,no mutagenic effects
CC1CCCC(C)N1CCNC(=O)c1ccc(C(=O)Nc2ccccc2N)nc1 (stereo not drawn) [Compound 1011],significantly enhanced,good stability,1.7 ± 2.1 revertant colonies per plate,1.7 ± 1.5 revertant colonies per plate,4.7 ± 2.1 revertant colonies per plate,4.3 ± 3.5 revertant colonies per plate,no mutagenic effects
Nc1ccccc1NC(=O)c1ccc(C(=O)NCCN2CCC3(CCCCC3)CC2)cc1 [Compound 1020],–,unstable,–,–,–,–,–
